Where two headings read alike, the source gives them in different places. Where a SMILES comes first, the peptide text is derived from it. [ ]: non-standard residue; d: D form. ξ: configuration not given here. ξLac(3-iPr) = CC(C)CC(O)C(=O)O; NMeV = CN[CH](C(=O)O)C(C)C; NMeA = CN[CH](C)C(=O)O; βAla = NCCC(=O)O
Test system: wild-type ZIKV (Ugandan MR766 strain) in Vero cells
Assay: ZIKV cytopathic effect (CPE) inhibition qHTS assay, CellTiter-Glo readout
Assay type: cell-based, Zika virus
Details: for Emax: read-out: Max response
[1] = Zika virus, Vero, read-out: Log AC50 (M) (converted)
[2] = Zika virus, Vero, read-out: Log AC50 (converted)

O=S(=O)(c1ccc(S(=O)(=O)n2cnc3ccccc32)cc1)N1CCCCCC1 [MLS000033224-02]
CC-v2 (curve class classification of the dose response curve): -3 | Efficacy: -29.668 | AC50 (Zika virus, Vero): 3.17e-05 M | AC50 [1]: 3.17e-05 M

O=c1c2ccccc2nc2n1CCc1c-2[nH]c2ccccc12 [NCGC00015892-08]
CC-v2 (curve class classification of the dose response curve): -2.2 | Efficacy: -34.451 | AC50 (Zika virus, Vero): 4.11e-05 M | AC50 [1]: 4.11e-05 M

COc1ccc(CCN(C)CCCC(C#N)(c2ccc(OC)c(OC)c2)C(C)C)cc1OC (stereo not shown) [NCGC00016083, Verapamil, reference compound]
Identified as active in CPE assay validation set: identified

COc1ccc2c(OC)c3ccoc3nc2c1OC [NCGC00016333-05]
Efficacy: -23.663 | AC50 (Zika virus, Vero): 1.84e-05 M | AC50 [1]: 1.84e-05 M

C[S+]([O-])c1ccc(-c2nc(-c3ccncc3)c(-c3ccc(F)cc3)[nH]2)cc1 (stereo not shown) [NCGC00025035, SB-203580, reference compound]
Identified as active in CPE assay validation set: identified

CCOC(=O)C1=C(N)Oc2ccc(Br)cc2C1C(C#N)C(=O)OCC (stereo not shown) [NCGC00025207-15]
Efficacy: -30.652 | AC50 [1]: 7.31e-05 M

CCOC(=O)C1=C(N)Oc2ccc(Br)cc2C1C(C#N)C(=O)OCC (stereo not shown) [NCGC00025207-16]
AC50: 3.26e-05 M | Curve class: -3 | Efficacy: -33.191 | AC50 [2]: 3.26e-05 M | Emax (Zika virus, Vero): -2.2%

C[C@H]1O[C@@H](O[C@H]2[C@@H](O)C[C@H](O[C@H]3[C@@H](O)C[C@H](O[C@H]4CC[C@@]5(C)[C@H](CC[C@@H]6[C@@H]5C[C@@H](O)[C@]5(C)[C@@H](C7=CC(=O)OC7)CC[C@]65O)C4)O[C@@H]3C)O[C@@H]2C)C[C@H](O)[C@@H]1O [NCGC00090797-15]
Efficacy: -19.155 | AC50 (Zika virus, Vero): 8.2e-06 M | AC50 [1]: 8.2e-06 M

O=C1Nc2ccc(Cl)cc2[C@@](C#CC2CC2)(C(F)(F)F)O1 [NCGC00159337, efavirenz, reference compound]
Identified as active in CPE assay validation set: identified

COc1ccc2cc1Oc1ccc(cc1)C[C@H]1c3c(cc4c(c3Oc3cc5c(cc3OC)CCN(C)[C@@H]5C2)OCO4)CCN1C [NCGC00161621-05]
Efficacy: -31.519 | AC50 (Zika virus, Vero): 6.51e-05 M | AC50 [1]: 6.51e-05 M

CN(C)CC1CCn2c(c(C3=C(c4cn(C)c5ccccc45)C(=O)NC3=O)c3ccccc32)C1 (stereo not shown) [NCGC00163696-04]
Efficacy: -28.697 | AC50 (Zika virus, Vero): 3.26e-05 M | AC50 [1]: 3.26e-05 M

O=C1c2c(O[C@@H]3O[C@H](CO)[C@@H](O)[C@H](O)[C@H]3O)cc(O)cc2OC1(O)Cc1ccc(O)cc1 (stereo partly shown) [NCGC00168800-03]
CC-v2 (curve class classification of the dose response curve): -3 | Efficacy: -41.876 | AC50 (Zika virus, Vero): 3.17e-05 M | AC50 [1]: 3.17e-05 M

C=C1C(=O)O[C@@H]2C3C(=C(C)[C@@H](O)[C@@H](OC(=O)/C(=C/C)COC(C)=O)[C@@H]12)C(=O)[C@H]1O[C@@]31C (stereo partly shown) [NCGC00168883-03]
CC-v2 (curve class classification of the dose response curve): -2.1 | Efficacy: -116.882 | AC50 (Zika virus, Vero): 3.17e-05 M | AC50 [1]: 3.17e-05 M

C=CC/C=C\C/C=C\CCCCCCCc1cc(O)cc(O)c1 [NCGC00168928-02]
Efficacy: -22.946 | AC50 (Zika virus, Vero): 4.53e-05 M | AC50 [1]: 4.53e-05 M

COc1cc2occc2c(O[C@@H]2O[C@H](CO)[C@@H](O)[C@H](O)[C@H]2O)c1CCC(=O)O [NCGC00168932-02]
CC-v2 (curve class classification of the dose response curve): -3 | Efficacy: -83.984 | AC50 (Zika virus, Vero): 1.59e-05 M | AC50 [1]: 1.59e-05 M

CC(=O)O[C@@]1(C)C[C@@H](O)[C@]2(O)C=CO[C@@H](O[C@@H]3O[C@H](CO)[C@@H](O)[C@H](O)[C@H]3O)[C@@H]21 [NCGC00169032-03]
Curve class: -3 | Efficacy: -81.683 | AC50 (Zika virus, Vero): 1.42e-05 M | AC50 [2]: 1.42e-05 M | Emax (Zika virus, Vero): 1.21%

C/C=C(/C)C(=O)O[C@H]1C=C(CO)C(=O)[C@H](OC(=O)/C(C)=C/CO)[C@H]1C(C)C [NCGC00169078-03]
CC-v2 (curve class classification of the dose response curve): -3 | Efficacy: -32.45 | AC50 (Zika virus, Vero): 5.08e-05 M | AC50 [1]: 5.08e-05 M

C=C1C(=O)O[C@@H]2C[C@H](C)[C@@H]3CC(=O)C(C)=C3C[C@H]12 [NCGC00169080-02]
Curve class: -3 | Efficacy: -111.978 | AC50 (Zika virus, Vero): 6.51e-05 M | AC50 [2]: 6.51e-05 M | Emax (Zika virus, Vero): -89.7%

C=C(C)C(=O)O[C@H]1[C@H]2C(=C)C(=O)O[C@@H]2C[C@@H](C)/C=C\C(=O)[C@](C)(O)[C@@H]1OC(C)=O [NCGC00169210-02]
Curve class: -3 | Efficacy: -39.663 | AC50 (Zika virus, Vero): 3.55e-05 M | AC50 [2]: 3.55e-05 M | Emax (Zika virus, Vero): -40.2%

C=C(C)C(=O)O[C@H]1[C@H]2C(=C)C(=O)O[C@@H]2C[C@@H](C)[C@@H]2O[C@@H]2C(=O)[C@](C)(O)[C@@H]1OC(=O)C(=C)C [NCGC00169479-03]
CC-v2 (curve class classification of the dose response curve): -3 | Efficacy: -35.91 | AC50 (Zika virus, Vero): 3.55e-05 M | AC50 [1]: 3.55e-05 M

C[C@H]1C(=O)N2c3ccccc3[C@@]3(O)C[C@@H]4C(=O)N[C@](C)(c5nc6ccccc6c(=O)n54)N1[C@@H]23 [NCGC00169614-02]
Curve class: -3 | Efficacy: -78.987 | AC50 (Zika virus, Vero): 1.59e-05 M | AC50 [2]: 1.59e-05 M | Emax (Zika virus, Vero): 0.173%

C=C(C(=O)O)[C@@H]1CC[C@@]2(C)CCC[C@@](C)(O)[C@@H]2C1 [NCGC00169889-02]
Curve class: -3 | Efficacy: -77.65 | AC50 (Zika virus, Vero): 2.91e-05 M | AC50 [2]: 2.91e-05 M | Emax (Zika virus, Vero): -0.865%

CCC(C)C1NC(=O)C2CCCN2C(=O)C(CC(C)C)OC(=O)CCNC(=O)C(C)N(C)C(=O)C(C(C)C)N(C)C1=O (stereo not shown) [NCGC00169957-03] (cyclo([ξLac(3-iPr)]PI[NMeV][NMeA][βAla]); configuration not given here)
CC-v2 (curve class classification of the dose response curve): -2.2 | Efficacy: -56.609 | AC50 (Zika virus, Vero): 1.93e-05 M | AC50 [1]: 1.93e-05 M

CC1(C)CC[C@]2(C(=O)O)CC[C@]3(C)C(=CCC4[C@@]5(C)CC[C@H](O[C@@H]6O[C@H](C(=O)O)[C@@H](O[C@@H]7OC[C@@H](O)[C@H](O)[C@H]7O)[C@H](O)[C@H]6O)C(C)(C)C5CC[C@]43C)C2C1O (stereo partly shown) [NCGC00179805-02]
CC-v2 (curve class classification of the dose response curve): -3 | Efficacy: -39.908 | AC50 (Zika virus, Vero): 2.73e-05 M | AC50 [1]: 2.73e-05 M

COC(=O)C12CCC(C)C(C)C1C1=CCC3C4(C)CCC(OC(C)=O)C(C)(C)C4CCC3(C)C1(C)CC2 (stereo not shown) [NCGC00179932-02]
CC-v2 (curve class classification of the dose response curve): -3 | Efficacy: -73.633 | AC50 (Zika virus, Vero): 1.42e-05 M | AC50 [1]: 1.42e-05 M

C=C(C)C1=C[C@@]2(C)C(=CC1=O)CC[C@@H](O)[C@@H]2C [NCGC00180357-02]
Efficacy: -25.033 | AC50 (Zika virus, Vero): 1.46e-05 M | AC50 [1]: 1.46e-05 M

CO[C@H]1[C@H](O)[C@H](O[C@H]2CC[C@]3(C)C4CC[C@]5(C)[C@H](C6=CC(=O)OC6)CC[C@]5(O)C4CC[C@@H]3C2)O[C@@H](C)[C@@H]1O (stereo partly shown) [NCGC00180641-02]
Efficacy: -18.714 | AC50 (Zika virus, Vero): 1e-06 M | AC50 [1]: 1e-06 M

C=C[C@H]1[C@H](O[C@@H]2O[C@H](CO)[C@@H](O)[C@H](O)[C@H]2O)OC=C2C(=O)OCC[C@H]21 [NCGC00180755-03]
AC50 (Zika virus, Vero, from Hill fit of the response curve, 50% of maximum activity response, 194 cherry-picked compounds, protocol name not given, read-out: AC50): 1.28e-05 M | AC50 (Zika virus, Vero, potency in log units (Molar) from Hill fit of the response curve, 194 cherry-picked compounds, protocol name not given, read-out: Log AC50 (converted)): 1.28e-05 M | CC-v2 (curve class classification of the dose response curve) (curve class v2 (Inglese et al. 2006)): -3 | Efficacy (difference between neutral response and maximum compound response): -78.228

C/C=C(\C)C(=O)O[C@H]1C=C(CO)C(=O)[C@H](OC(C)=O)[C@H]1C(C)C [NCGC00180769-03]
CC-v2 (curve class classification of the dose response curve): -3 | Efficacy: -32.712 | AC50 (Zika virus, Vero): 4.53e-05 M | AC50 [1]: 4.53e-05 M

COc1cc(O)c2c(c1)/C=C/C[C@H](O)[C@H](O)C(=O)/C=C\C[C@H](C)OC2=O [NCGC00186421-07]
CC-v2 (curve class classification of the dose response curve): -3 | Efficacy: -83.256

COC(=O)[C@]12CCC(C)(C)C[C@H]1[C@H]1C(=O)C=C3[C@@]4(C)C=C(C#N)C(=O)C(C)(C)[C@@H]4CC[C@@]3(C)[C@]1(C)CC2 [NCGC00186460, bardoxolone methyl, reference compound]
Identified as active in CPE assay validation set: identified

COc1cc2c(NC3CCN(C(C)C)CC3)nc(C3CCCCC3)nc2cc1OCCCN1CCCC1 [NCGC00189220-03]
Efficacy: -26.68 | AC50 (Zika virus, Vero): 7.31e-05 M | AC50 [1]: 7.31e-05 M

CC(C)(O)CCc1ccc(OCc2cc(-c3cccc(OC(F)F)c3)c3ncccc3c2)cc1 [NCGC00249759-02]
Efficacy: -26.837 | AC50 (Zika virus, Vero): 3.26e-05 M | AC50 [1]: 3.26e-05 M

COc1c(Cl)cc2c([nH]c3cnccc32)c1NC(=O)c1cccnc1C [NCGC00263021-04]
CC-v2 (curve class classification of the dose response curve): -2.2 | Efficacy: -34.501 | AC50 (Zika virus, Vero): 6.51e-05 M | AC50 [1]: 6.51e-05 M

O=C1[C@H](CC[C@H](O)c2ccc(F)cc2)[C@@H](c2ccc(O)cc2)N1c1ccc(F)cc1 [NCGC00263575-07]
Efficacy: -30.405 | AC50 (Zika virus, Vero): 2.91e-05 M | AC50 [1]: 2.91e-05 M

CCN(CC)C(=O)Nc1ccc(OCC(O)CNC(C)(C)C)c(C(C)=O)c1 (stereo not shown) [NCGC00344562-02]
CC-v2 (curve class classification of the dose response curve): -3 | Efficacy: -33.868 | AC50 (Zika virus, Vero): 3.26e-05 M | AC50 [1]: 3.26e-05 M

CN1CCC(COc2cnc(-c3cccc(Cn4nc(-c5cccc(C#N)c5)ccc4=O)c3)nc2)CC1 [NCGC00345793-08]
Efficacy: -35.437 | AC50 (Zika virus, Vero): 6.51e-05 M | AC50 [1]: 6.51e-05 M

CC[C@H](CC#N)OC(=O)N[C@@H](C)c1cccc(NC(=O)Nc2ccc(-c3cnco3)c(OC)c2)c1 [NCGC00345803-05]
Efficacy: -31.6 | AC50 (Zika virus, Vero): 7.31e-05 M | AC50 [1]: 7.31e-05 M

COc1cc(Nc2nc3ccccc3nc2N[S+](=O)([O-])c2ccc(NC(=O)c3ccc(C)c(OC)c3)cc2)cc(OC)c1 [NCGC00346541-08]
Efficacy: -33.022 | AC50 (Zika virus, Vero): 5.8e-05 M | AC50 [1]: 5.8e-05 M

C[C@H]1[C@H](C)CC[C@]2(C(=O)O)CC[C@]3(C)C(=CC[C@@H]4[C@@]5(C)C[C@@H](O)[C@H](O)[C@@](C)(CO)[C@@H]5CC[C@]43C)[C@H]12 [NCGC00346584-02]
Efficacy: -33.569 | AC50 (Zika virus, Vero): 5.8e-05 M | AC50 [1]: 5.8e-05 M

Reference: article PMC8765781, “A platform of assays for the discovery of anti-Zika small-molecules with activity in a 3D-bioprinted outer-blood-retina model” (PLoS ONE, 2022)
